From patent US4723008A, “Isoprenylamine derivatives” (priority 1981, dated 1988)

Columns and labels:
[1] = Toxicity, 50% lethal dose, intravenous; conditions: mouse, in vivo, ddY male mice, read-out: LD50 (Intravenous administration mg/kg)
Source text: Using ddY male mice weighing 20-25 g, 50% lethal dose of each test compound intravenously administered was obtained, the results of which are shown in Table 6.

vaccinia virus = type: in vivo, vaccinia virus; ICR female mice; conditions: 50 mg/kg intraperitoneally 24 hours before inoculation; lesions counted on 8th day
[2] = test system: Human interferon (normal diploid cells (fibroblast) originated from human being); assay: Human interferon inducing activity (in vitro), 3H-uridine-uptake inhibition; type: cell-based; conditions: 25 n molar suspension
Method: (5) Human interferon inducing activity (in vitro)
Interferon was induced according to the method of Edward A. Havell et al. by treating normal diploid cells (fibroblast) originated from human being with each test compound in the form of ethanol solution diluted with PBS (--), (25 n molar suspension). Using the radioisotope microassay method or H. Ishitsuka et al., interferon was measured in terms of 3H-uridine-uptakeinhibition rate.

tumor cells KN7 -8 = assay: Anti-tumor activity (survivors on the 30th day); type: in vivo, Balb/c male mice; conditions: 30 mg/kg intraperitoneally 3 times (24 hours before, second and fifth day after inoculation of 5×10^5 cells); survivors/group
Source text: Groups, each consisting of Balb/c male mice weighing about 20 g, were intraperitoneally administered 5×10^5 of tumor cells KN7 -8.

[3] = test system: vaccinia virus (vero cells); type: cell-based; conditions: 50 n molar concentration

Row | Structure (SMILES) | Prevention from vaccinia infection (Pock inhibition rate %) (vaccinia virus) [%] | Human interferon 3H-uridine-uptake inhibition rate (%) [2] [%] | also measured
1 | CC(C)=CCCC(C)=CCCC(C)=CCCC(C)=CCCC(C)=CCCC(C)=CCCC(C)=CCCC(C)=CCCC(C)=CCN(CCc1ccccc1)CC(O)CN1CCN(CCO)CC1 (stereo not shown) [drawing 65] | – | – | LD50 [1]: 338 mg/kg
2 | CC(C)=CCCC(C)=CCCC(C)=CCCC(C)=CCCC(C)=CCCC(C)=CCCC(C)=CCCC(C)=CCCC(C)=CCN(CC=C(C)CCC=C(C)CCC=C(C)CCC=C(C)CCC=C(C)CCC=C(C)CCC=C(C)CCC=C(C)CCC=C(C)C)CCCCc1ccccc1 | 34.1 | – | –
3 | COc1ccc(CN(CC=C(C)CCC=C(C)C)CC=C(C)CCC=C(C)C)cc1OC | – | 68.4 | –
4 | CC(C)=CCCC(C)=CCCC(C)=CCCC(C)=CCCC(C)=CCCC(C)=CCCC(C)=CCCC(C)=CCCC(C)=CCN(CCc1ccccc1)CC(O)CNC(C)(C)C (stereo not shown) [drawing 64] | – | – | LD50 [1]: 28 mg/kg
5 | CC(C)=CCCC(C)=CCCC(C)=CCCC(C)=CCCC(C)=CCCC(C)=CCCC(C)=CCCC(C)=CCCC(C)=CCCC(C)=CCN(CCO)Cc1ccccc1 [drawing 49] | 38.4 | – | –
6 | CC(C)=CCCC(C)=CCCC(C)=CCCC(C)=CCCC(C)=CCCC(C)=CCCC(C)=CCCC(C)=CCCC(C)=CCCC(C)=CCN1CCOCCOCCNCCOCCOCC1 [drawing 67] | – | 28.3 | –
7 | CC(C)=CCCC(C)=CCCC(C)=CCCC(C)=CCCC(C)=CCCC(C)=CCCC(C)=CCCC(C)=CCCC(C)=CCCC(C)=CCN(CCO)CC(O)c1ccccc1 (stereo not shown) [drawing 62] | – | – | LD50 [1]: 258 mg/kg
8 | CC(C)=CCCC(C)=CCCC(C)=CCCC(C)=CCCC(C)=CCCC(C)=CCCC(C)=CCCC(C)=CCCC(C)=CCCC(C)=CCN(Cc1ccccc1)CC(O)CNC(C)(C)C (stereo not shown) [drawing 58] | – | – | Anti-tumor activity (Survivor on the 30th day) (tumor cells KN7 -8): 2/6
9 | CC(C)=CCCC(C)=CCCC(C)=CCCC(C)=CCCC(C)=CCCC(C)=CCCC(C)=CCCC(C)=CCCC(C)=CCCC(C)=CCN1CCOCCOCCNCCOCCOCC1 [drawing 56] | – | – | Anti-tumor activity (Survivor on the 30th day) (tumor cells KN7 -8): 3/6
10 | CC(C)=CCCC(C)=CCCC(C)=CCCC(C)=CCCC(C)=CCCC(C)=CCCC(C)=CCCC(C)=CCCC(C)=CCCC(C)=CCN(CCO)CC(O)c1ccccc1 (stereo not shown) [drawing 68] | – | 4.3 | –
11 | CC(C)=CCCC(C)=CCCC(C)=CCCC(C)=CCCC(C)=CCCC(C)=CCCC(C)=CCCC(C)=CCCC(C)=CCCC(C)=CCN(Cc1ccccc1)CC(O)CN(CCO)CCO (stereo not shown) [drawing 69] | – | 61.3 | –
12 | CC(C)=CCCC(C)=CCCC(C)=CCCC(C)=CCCC(C)=CCCC(C)=CCCC(C)=CCCC(C)=CCCC(C)=CCN(CCc1ccccc1)CC(O)CN1CCN(CCO)CC1 (stereo not shown) [drawing 42] | 85.6 | – | –
13 | CC(C)=CCCC(C)=CCCC(C)=CCCC(C)=CCCC(C)=CCCC(C)=CCCC(C)=CCCC(C)=CCCC(C)=CCN(Cc1ccccc1)Cc1ccccc1 [drawing 43] | 50.3 | – | –
14 | CC(C)=CCCC(C)=CCCC(C)=CCCC(C)=CCCC(C)=CCCC(C)=CCCC(C)=CCCC(C)=CCCC(C)=CCN(CCc1ccccc1)CC(O)CNC(C)(C)C (stereo not shown) [drawing 71] | – | 32.6 | –
15 | CC(C)=CCCC(C)=CCCC(C)=CCCC(C)=CCCC(C)=CCCC(C)=CCCC(C)=CCCC(C)=CCCC(C)=CCN(CCO)Cc1ccccc1 [drawing 44] | 53.4 | – | –
16 | CC(C)=CCCC(C)=CCCC(C)=CCCC(C)=CCCC(C)=CCCC(C)=CCCC(C)=CCCC(C)=CCCC(C)=CCN(CCc1ccccc1)CC(O)CN1CCN(CCO)CC1 (stereo not shown) [drawing 59] | – | – | Anti-tumor activity (Survivor on the 30th day) (tumor cells KN7 -8): 4/6
17 | CC(C)=CCCC(C)=CCCC(C)=CCCC(C)=CCCC(C)=CCCC(C)=CCCC(C)=CCCC(C)=CCCC(C)=CCCC(C)=CCN(Cc1ccccc1)CC(O)CN(CCO)CCO (stereo not shown) [drawing 57] | – | – | Anti-tumor activity (Survivor on the 30th day) (tumor cells KN7 -8): 1/6

Row | Structure (SMILES) | Prevention from vaccinia infection (Pock inhibition rate %) (vaccinia virus) [%] | Human interferon 3H-uridine-uptake inhibition rate (%) [2] [%] | also measured
18 | CC(C)=CCCC(C)=CCCC(C)=CCCC(C)=CCCC(C)=CCCC(C)=CCCC(C)=CCCC(C)=CCCC(C)=CCN(CCO)Cc1ccccc1 [drawing 74] | – | 5.1 | –
19 | CC(C)=CCCC(C)=CCCC(C)=CCCC(C)=CCCC(C)=CCCC(C)=CCCC(C)=CCCC(C)=CCCC(C)=CCCC(C)=CCN(Cc1ccccc1)CC(O)CN(CCO)CCO (stereo not shown) [drawing 83] | – | – | Anti-vaccinia virus activity (Plaque inhibition rate %) [3]: 10.6%
20 | CC(C)=CCCC(C)=CCCC(C)=CCCC(C)=CCCC(C)=CCCC(C)=CCCC(C)=CCCC(C)=CCCC(C)=CCCC(C)=CCN(Cc1ccccc1)CC(O)CNC(C)(C)C (stereo not shown) [drawing 70] | – | 59.8 | –
21 | COc1ccc(CN(CC=C(C)CCC=C(C)CCC=C(C)CCC=C(C)CCC=C(C)CCC=C(C)CCC=C(C)CCC=C(C)CCC=C(C)C)CC=C(C)CCC=C(C)CCC=C(C)CCC=C(C)CCC=C(C)CCC=C(C)CCC=C(C)CCC=C(C)CCC=C(C)C)cc1OC | 32.4 | – | –
22 | CC(C)=CCCC(C)=CCCC(C)=CCCC(C)=CCCC(C)=CCCC(C)=CCCC(C)=CCCC(C)=CCCC(C)=CCN(CCO)Cc1ccccc1 [drawing 66] | – | – | LD50 [1]: 791 mg/kg
23 | CC(C)=CCCC(C)=CCCC(C)=CCCC(C)=CCCC(C)=CCCC(C)=CCCC(C)=CCCC(C)=CCCC(C)=CCCC(C)=CCN(CCO)Cc1ccccc1 [drawing 79] | – | 25.4 | –
24 | COc1ccc(CN(CC=C(C)CCC=C(C)CCC=C(C)CCC=C(C)CCC=C(C)CCC=C(C)CCC=C(C)CCC=C(C)CCC=C(C)CCC=C(C)C)CC=C(C)CCC=C(C)CCC=C(C)CCC=C(C)CCC=C(C)CCC=C(C)CCC=C(C)CCC=C(C)CCC=C(C)CCC=C(C)C)cc1 | 38.8 | – | –
25 | CC(C)=CCCC(C)=CCCC(C)=CCCC(C)=CCCC(C)=CCCC(C)=CCCC(C)=CCCC(C)=CCCC(C)=CCCC(C)=CCN(CCO)CC(O)c1ccccc1 (stereo not shown) [drawing 38] | 60.1 | – | –
26 | CC(C)=CCCC(C)=CCCC(C)=CCCC(C)=CCCC(C)=CCCC(C)=CCCC(C)=CCCC(C)=CCCC(C)=CCN(CCc1ccccc1)CC(O)CNC(C)(C)C (stereo not shown) [drawing 41] | 82.9 | – | –
27 | CC(C)=CCCC(C)=CCCC(C)=CCCC(C)=CCCC(C)=CCCC(C)=CCCC(C)=CCCC(C)=CCCC(C)=CCN(CCc1ccccc1)CC(O)CN1CCN(CCO)CC1 (stereo not shown) [drawing 72] | – | 17.4 | –
28 | CC(C)=CCCC(C)=CCCC(C)=CCCC(C)=CCCC(C)=CCCC(C)=CCCC(C)=CCCC(C)=CCCC(C)=CCCC(C)=CCN(CCO)Cc1ccccc1 [drawing 84] | – | – | Anti-vaccinia virus activity (Plaque inhibition rate %) [3]: 14.1%
29 | CC(C)=CCCC(C)=CCCC(C)=CCCC(C)=CCCC(C)=CCCC(C)=CCCC(C)=CCCC(C)=CCCC(C)=CCN(CCCN)CCCN | – | – | Anti-tumor activity (Survivor on the 30th day) (tumor cells KN7 -8): 4/6
30 | CC(C)=CCCC(C)=CCCC(C)=CCCC(C)=CCCC(C)=CCCC(C)=CCCC(C)=CCCC(C)=CCCC(C)=CCCC(C)=CCN1CCN(Cc2ccccc2)CC1 [drawing 48] | 64.0 | – | –
31 | CC(C)=CCCC(C)=CCCC(C)=CCCC(C)=CCCC(C)=CCCC(C)=CCCC(C)=CCCC(C)=CCCC(C)=CCCC(C)=CCN1CCN(Cc2ccccc2)CC1 [drawing 78] | – | 3.6 | –
32 | CC(C)=CCCC(C)=CCCC(C)=CCCC(C)=CCCC(C)=CCCC(C)=CCCC(C)=CCCC(C)=CCCC(C)=CCCC(C)=CCN1CCOCCOCCNCCOCCOCC1 [drawing 37] | 57.1 | – | –
33 | CC(C)=CCCC(C)=CCCC(C)=CCCC(C)=CCCC(C)=CCCC(C)=CCCC(C)=CCCC(C)=CCCC(C)=CCCC(C)=CCN(Cc1ccccc1)CC(O)CN(CCO)CCO (stereo not shown) [drawing 63] | – | – | LD50 [1]: 162 mg/kg
34 | CC(C)=CCCC(C)=CCCC(C)=CCCC(C)=CCCC(C)=CCCC(C)=CCCC(C)=CCCC(C)=CCCC(C)=CCN(Cc1ccccc1)Cc1ccccc1 [drawing 73] | – | 4.4 | –
